Laboratory results from publication PMC6934184, “Selective DNA-PKcs inhibition extends the therapeutic index of localized radiotherapy and chemotherapy” (The Journal of Clinical Investigation, 2019).

Molecular target: T1, PIM2 (Homo sapiens, UniProt Q9P1W9)
T1 construct: purchased Thermo Fisher Scientific (Life Technologies) SelectScreen
Test: SelectScreen Z'LYTE
Assay type: biochemical
Protocol: The in vitro kinase selectivity of NU5455 was determined using the SelectScreen Broad Assay Panel (Thermo Fisher Scientific) involving activity and binding assays (Supplemental Table 1). […] Class IA PI3Ks were measured using the p85α subunit.
Kinase [ATP] % Assay Kinase [ATP] % Assay Kinase [ATP] % Assay Kinase [ATP] % Assay
DNA-PK Km app 98.3 Z LATS2 n/a 4.7 L KIT D820E n/a 1.3 L GSK3B (GSK3 beta) Km app -2.5 Z
PIK3C3 (hVPS34) Km app 85.9 A PRKCZ (PKC zeta) Km app 4.7 Z GRK1 n/a 1.3 L BMPR2 n/a -2.5 L
PIK3C2B (PI3K-C2 beta) 10 28.9 A FGFR1 Km app 4.7 Z BRSK2 n/a 1.2 L CDC42 BPB (MRCKB) Km app -2.5 Z
SNF1LK2 Km app 26.6 Z MINK1 Km app 4.6 Z NUAK1 (ARK5) Km app 1.2 A AMPK (A2/B2/G2) n/a -2.6 L
HCK Km app 18.0 Z CSF1R (FMS) Km app 4.3 Z CDK9/cyclin K n/a 1.0 L PRKG1 Km app -2.7 Z
NEK2 Km app 17.8 Z CSNK1G3 (CK1 gamma 3) Km app 4.2 Z NUAK2 n/a 1.0 L KIT T670E n/a -2.8 L
ALK Km app 17.3 Z STK32C (YANK3) n/a 4.2 L CDK2/cyclin O n/a 0.9 L ERBB4 (HER4) Km app -2.8 Z
FGFR3 K650M n/a 16.5 L STK22D (TSSK1) Km app 4.2 Z CAMKK2 (CaMKK beta) n/a 0.9 L PLK4 n/a -2.8 L
SIK3 n/a 16.1 L TAOK3 (JIK) n/a 4.2 L FGFR3 Km app 0.9 Z GRK7 Km app -3.0 Z
LYN A Km app 15.2 Z RPS6KA4 (MSK2) Km app 4.2 Z ULK2 n/a 0.9 L MAPKAPK2 Km app -3.1 Z
BMPR1B (ALK6) n/a 14.5 L PTK2B (FAK2) Km app 4.2 Z KIT D816V n/a 0.9 L FGFR4 Km app -3.1 Z
INSRR (IRR) Km app 14.1 Z CLK2 Km app 4.1 Z CAMK1 (CaMK1) 10 0.8 A CASK n/a -3.1 L
PLK2 Km app 14.1 Z STK24 (MST3) Km app 4.1 Z PTK6 (Brk) Km app 0.7 Z GRK5 Km app -3.2 Z
PRKACA (PKA) Km app 14.0 Z CAMK1D (CaMKI delta) Km app 4.1 Z CAMK2B (CaMKII beta) Km app 0.7 Z EGFR (ErbB1) T790M Km app -3.3 Z
EIF2AK2 (PKR) n/a 13.3 L INSR Km app 4.1 Z ACVR1 (ALK2) n/a 0.7 L PAK4 Km app -3.3 Z
PRKX Km app 12.5 Z IRAK1 Km app 4.0 A ABL1 H396P n/a 0.6 L DAPK3 (ZIPK) Km app -3.4 Z
FGR Km app 12.1 Z SRC N1 Km app 3.9 Z MERTK (cMER) A708S n/a 0.6 L RET M918T n/a -3.5 L
CLK1 Km app 11.7 Z SRPK2 Km app 3.9 Z MAPKAPK5 (PRAK) Km app 0.6 Z PRKCQ (PKC theta) Km app -3.7 Z
MARK3 Km app 11.4 Z RPS6KA6 (RSK4) Km app 3.8 Z AKT1 (PKB alpha) Km app 0.5 Z CAMKK1 (CAMKKA) n/a -3.8 L
PDGFRB (PDGFR beta) Km app 11.0 Z GRK6 Km app 3.7 Z NTRK3 (TRKC) Km app 0.4 Z FLT3 D835Y Km app -3.9 Z
PRKCN (PKD3) Km app 10.7 Z PKN1 (PRK1) Km app 3.6 Z ZAP70 Km app 0.3 Z ROCK2 Km app -4.1 Z
STK16 (PKL12) n/a 10.5 L MAP3K8 (COT) 100 3.5 Z CSNK1A1 (CK1 alpha 1) Km app 0.3 Z CHUK (IKK alpha) Km app -4.2 A
FES (FPS) Km app 10.4 Z FLT4 (VEGFR3) Km app 3.5 Z MYLK (MLCK) n/a 0.2 L AXL Km app -4.2 Z
ABL1 Km app 10.4 Z GRK4 Km app 3.5 Z MKNK2 (MNK2) n/a 0.2 L PIM2 Km app -4.3 Z
MUSK Km app 10.3 Z FRK (PTK5) Km app 3.4 Z AMPK (A1/B1/G3) n/a 0.2 L PAK1 Km app -4.4 Z
MAPK1 (ERK2) Km app 10.1 Z FYN A n/a 3.3 L MAP3K2 (MEKK2) n/a 0.1 L BMPR1A (ALK3) n/a -4.4 L
BRAF 100 9.9 Z CDK1/cyclin A2 n/a 3.3 L CDK8/cyclin C n/a 0.1 L STK4 (MST1) Km app -4.4 Z
IGF1R Km app 9.7 Z KIT V559D T670I n/a 3.1 L MARK2 Km app 0.1 Z PRKCH (PKC eta) Km app -4.6 Z
MAPK14 (p38 alpha) Km app 9.7 Z SPHK2 10 3.1 A ICK n/a 0.0 L SGKL (SGK3) Km app -4.6 Z
LCK Km app 9.6 Z FGFR3 G697C n/a 3.1 L FGFR2 Km app 0.0 Z PI4KB (PI4K beta) Km app -4.7 A
MAPK11 (p38 beta) Km app 9.5 Z RIPK2 n/a 3.1 L AKT2 (PKB beta) Km app 0.0 Z PRKCE (PKC epsilon) Km app -4.9 Z
SRC Km app 9.5 Z PAK6 Km app 3.0 Z EPHB2 Km app -0.1 Z PHKG1 Km app -5.0 Z
CHEK1 (CHK1) Km app 9.3 Z LYN B Km app 3.0 Z TGFBR2 n/a -0.1 L PDGFRA D842V Km app -5.0 Z
CAMK2D (CaMKII delta) Km app 9.3 Z DAPK2 n/a 2.9 L TEK (Tie2) Km app -0.1 Z PRKG2 (PKG2) Km app -5.1 Z
PLK1 Km app 9.2 Z EPHA4 Km app 2.9 Z AURKA (Aurora A) Km app -0.1 Z TYRO3 (RSE) Km app -5.1 Z
RET Y791F Km app 9.2 Z PIK3CG (p110 gamma) Km app 2.9 A KIT D816H n/a -0.2 L TAOK2 (TAO1) Km app -5.1 Z
FLT3 Km app 9.1 Z HIPK1 (Myak) Km app 2.8 Z KIT N822K n/a -0.2 L EPHB4 Km app -5.3 Z
MAPK10 (JNK3) 100 9.0 Z ADRBK2 (GRK3) Km app 2.8 Z PRKACG (PRKAC gamma) n/a -0.2 L AURKC (Aurora C) Km app -5.4 Z
CSNK2A2 (CK2 alpha 2) Km app 8.7 Z STK17B (DRAK2) n/a 2.7 L TEK (TIE2) Y1108F n/a -0.3 L JAK1 Km app -5.7 Z […]

T1 sequence (Q9P1W9 whole entry): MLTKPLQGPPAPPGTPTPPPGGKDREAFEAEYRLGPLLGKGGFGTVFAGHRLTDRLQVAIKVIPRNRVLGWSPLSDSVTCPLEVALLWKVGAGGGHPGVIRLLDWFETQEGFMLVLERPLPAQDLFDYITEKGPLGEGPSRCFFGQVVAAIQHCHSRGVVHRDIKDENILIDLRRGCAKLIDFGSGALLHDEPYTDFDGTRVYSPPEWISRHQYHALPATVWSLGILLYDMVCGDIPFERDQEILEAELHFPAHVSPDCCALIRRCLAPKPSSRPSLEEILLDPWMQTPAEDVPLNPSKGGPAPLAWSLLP

Q: `CN(C(=O)CN1CCOCC1)c1ccc2sc3c(-c4cccc5c(=O)cc(N6CC7CCC(C6)O7)oc45)cccc3c2c1` [NU5455] was tested. Which inhibition at 1 µM did it give?
A: -4.3%
